Assays:
[1] = Serum triglyceride levels in fat-fed hamsters; format: in vivo, hamster; details: for Serum triglyceride levels, 48 h / Serum triglyceride levels, 8 h / Serum triglyceride levels, 16 h: single dose, mean +/- SEM, 3 animals; for Serum triglyceride levels, 48 h: control 208.67; for Serum triglyceride levels, 8 h: control 261.33; for Serum triglyceride levels, 16 h: control 308.00
Experimental: Blood was sampled at 8, 16 and 48 hours following a single drug treatment for total triglyceride analysis. The mean levels (+/−SEM) for 3 animals per group are shown. The “*” indicates a statistically significant difference with respect to control (p<0.01) by Student's t-test. Animal studies: All procedures performed in this study were approved by the Animal Care and Use committee, and conform to the guide for the Care and Use of Laboratory Animals Act. Male Syrian Golden hamsters (Charles River, Wilmington Mass.) weighing 120-140 g, were used in the study. Animals were kept on a 12-hour light/dark cycle and allowed free access to normal chow and water. The animals were divided into groups according to weight, and fed either an high fat diet (0.5% cholesterol, 5% coconut oil) (N=3) or normal chow diet (N=3). […] At intervals of 0, 8, 16 and 48 hr animals were anesthetized with CO2. Blood was collected by cardiac puncture into EDTA containing tubes; plasma was isolated for immediate analysis of triglycerides by the Dade Clinical Analyser®. Animals were then euthanized with CO2. The liver and kidneys were collected, flash frozen in liquid nitrogen and stored at −80° C. for future gene expression analysis.

[2] = tested on: hamster PDK-4 mRNA in kidney; assay: PDK-4 mRNA induction in kidney of fat-fed hamsters; format: in vivo; details: single dose (GW9578 3 mg/kg, fenofibrate 100 mg/kg, gemfibrozil 500 mg/kg), 16 hours
Experimental: (§1) FIG. 4B is a bar graphs depicting the induction of PDK-4 mRNA in hamster kidney by PPARα ligands. […] After 16 hours, the tissues were harvested, total RNA isolated and levels of hamster PDK-4 mRNA were detected by RT-PCR. The values are normalized to 18S rRNA levels. The mean and SEM of three individual animals are shown.
(§2) PDK-4 plays a critical role in regulating glucose metabolism by phosphorylating and inactivating the pyruvate dehydrogenase complex in response to increased fatty acid oxidation. […] To investigate the response of PDK-4 to fibrate treatment in vivo, in another aspect of the present invention the fat-fed hamster model was employed, which closely mimics the serum lipid profiles of humans than other rodent models (Sullivan et al., (1993) Lab. Anim. Sci. 43:575-578). […] These doses were previously shown to yield maximal effects on blood triglycerides in hamster. […] In hamster kidney, the basal levels of PDK-4 mRNA were approximately 10-fold higher than in the liver (FIG. 4B). […] Fibrates are effective treatments for lowering serum triglyceride levels. To verify that the doses used in this study were efficacious, blood triglyceride levels were monitored over a 48 hour time course.
(§3) Real-time PCR: Fluorescence-based real-time PCR was performed essentially as described (Abbaszade et al., (1999) J. Biol. Chem. 274:23443-23450). […] Taqman-based real-time PCR expression profiling was performed using 25 ng of each cDNA according to the manufacturer's (PE Biosystems) instructions with fluorescence being monitored in real-time with an ABI Prism 7700 (PE Biosystems). Relative expression levels were determined essentially as described (Gibson et al., (1996) Genome Res. 6:995-1001) using standard curves for each transcript. Relative abundance was then determined from these standard curves, subtracting mRNA levels obtained from negative control reactions performed in the absence of reverse transcriptase, and normalized to 18S rRNA levels. […]

[3] = tested on: hamster PDK-4 mRNA in liver; assay: PDK-4 mRNA induction in liver of fat-fed hamsters; format: in vivo; details: single dose (GW9578 3 mg/kg, fenofibrate 100 mg/kg, gemfibrozil 500 mg/kg), 16 hour post-treatment
Experimental: as §1, with “4A” for “4B”, “graph” for “graphs”, “liver” for “kidney”
as §2, §3

[4] = tested on: PDK-4 mRNA in HK-2 cells (endogenous PPARα); assay: PDK-4 mRNA induction in HK-2 cells (real-time RT-PCR); format: cell-based, human; details: 24 hours; for EC50: Homo sapiens, HK-2, PDK-4 mRNA induction by quantitative PCR, normalized to 18S rRNA, read-out: EC50 (μM) in HK-2 (PDK-4)
Experimental: (§4) Values were normalized to 18S rRNA levels.
(§5) EC50 values were determined for PDK-4 mRNA induction by quantitative PCR under conditions used to generate the data shown in FIG. 2. EC50 values in the transactivation assays were determined by transfection of an expression plasmid encoding a GAL4-hPPARα chimera into cells co-expressing a luciferase reporter gene under the transcriptional control of GAL4 upstream activating elements.
(§6) Cell culture: The following cell lines were obtained from American Type Culture Collection (ATCC) and cultured in the recommended medium for each cell type: HepG2, HK-2, Caki-1, LNCaP (CloneFGC), SW872, and ACHN. PPARα compounds were prepared to a 500× stock in DMSO; corresponding control cells received an equal volume of vehicle (0.2% v/v).
Real-time PCR: Fluorescence-based real-time PCR was performed essentially as described (Abbaszade et al., (1999) J. Biol. Chem. 274:23443-23450). Primers and probes designed from the hamster pyruvate dehydrogenase kinase 4 (PDK4) sequence (Genbank Accession No. AF321218), human pyruvate dehydrogenase kinase 4 (PDK-4) sequence (Genbank Accession No. NM_002612) and human adipose differentiation-related protein (ADFP) sequence (Genbank Accession No. NM_001122) were synthesized and purified by Biosearch Technologies. Probes for ADFP and PDK-4 were modified at the 5′ end with the reporter dye 6-FAM, and at the 3′ end with the quencher dye Black Hole Quencher 1 (Biosearch Technologies). Probes detecting rat 18S rRNA were modified at the 5′ end with VIC and at the 3′ end with TAMRA (Biosearch Technologies). For detection of hamster PDK4, primers 5′-[…] (SEQ ID NO:2), 5′[…] (SEQ ID NO:3), and probe 5′-[…] (SEQ ID NO:4) were used. For detection of human PDK4, primers 5′-[…] (SEQ ID NO:5), 5′-[…] (SEQ ID NO:6), and probe 5′-[…] (SEQ ID NO:7) were used. For detection of human ADFP, primers 5′-[…] (SEQ ID NO:8), 5′-[…] (SEQ ID NO:9), and probe 5′-[…] (SEQ ID NO: 10) were used. For detection of 18s rRNA, primers 5′-[…] (SEQ ID NO:11), 5′-[…] (SEQ ID NO:12), and probe 5′-[…] (SEQ ID NO:13) were used. Template cDNA was generated using the Advantage RT-PCR kit according to the manufacturer's (Clontech) instructions using random hexamers and 1 μg of DNaseI-treated total RNA. Taqman-based real-time PCR expression profiling was performed using 25 ng of each cDNA according to the manufacturer's (PE Biosystems) instructions with fluorescence being monitored in real-time with an ABI Prism 7700 (PE Biosystems). Relative expression levels were determined essentially as described (Gibson et al., (1996) Genome Res. 6:995-1001) using standard curves for each transcript. Relative abundance was then determined from these standard curves, subtracting mRNA levels obtained from negative control reactions performed in the absence of reverse transcriptase, and normalized to 18S rRNA levels. All expression measurements were performed in duplicate in two independent assays, generating a total of four measurements per cDNA.

GAL4-hPPARα = molecular target: T1, GAL4-hPPARα (Homo sapiens, UniProt Q07869); assay: Transactivation assay, GAL4-hPPARα chimera with luciferase reporter; format: cell-based; details: HEK293 cell line with GAL4 UAS-Luciferase reporter; read-out: EC50 (μM) in Transactivation Assay (GAL4-hPPARα), Present Disclosure
T1 construct: other: HEK293 cell line with GAL4 UAS-Luciferase
T1 sequence (Q07869 200-468 limits assumed): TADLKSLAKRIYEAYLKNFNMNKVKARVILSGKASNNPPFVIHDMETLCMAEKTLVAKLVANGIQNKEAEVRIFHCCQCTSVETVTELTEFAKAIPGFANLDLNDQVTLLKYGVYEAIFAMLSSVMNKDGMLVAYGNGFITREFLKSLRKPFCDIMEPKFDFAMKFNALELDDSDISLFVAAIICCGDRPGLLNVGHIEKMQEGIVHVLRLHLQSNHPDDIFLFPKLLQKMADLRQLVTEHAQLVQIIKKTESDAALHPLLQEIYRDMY
Experimental: as §5
Transcriptional activation assay: Cell based transcriptional activation assays using a GAL4-hPPARa expression plasmid and an HEK293 cell line stably integrated with a GAL4 UAS-Luciferase reporter gene was performed exactly as described previously (Mukherjee et al., (2002) J. Steroid Biochem. Mol. Biol. 1712:1-9).

[5] = tested on: ADRP mRNA in HK-2 cells (endogenous PPARα); assay: ADRP mRNA induction in HK-2 cells (real-time RT-PCR); format: cell-based, human; details: highest dose tested 300 μM
Experimental: as §4, §6, §3

hamster PPARα = assay: Hamster PPARα transactivation assay; format: cell-based
[6] = tested on: PDK4 mRNA in HEK293 cells; assay: PDK4 mRNA induction in HEK293 cells by PPAR modulators (Taqman PCR); format: cell-based, human; details: 4 hours; 100 micromolar fenofibric acid, 10 micromolar rosiglitazone, 10 micromolar GW501516; relative to CYCD1 mRNA
Experimental: HEK293 cells were treated for 4 hours with the following PPAR modulators:
100 micromolar fenofibric acid (a PPARα selective modulator), 10 micromolar rosiglitazone (a PPARγ selective modulator) and 10 micromolar GW501516 (a PPARβ(δ) selective modulator; Oliver et al., (2001) Proc. Natl. Acad. Sci. U.S.A. 98:5306-11). PDK4 mRNA was measured by Taqman PCR analysis. The PDK4 expression levels are expressed relative to CYCD1 mRNA used as a normalization control.

PDK-4 [7] = details: Way et al. (2001); cited from earlier work
PDK-4 [8] = details: Wu et al. (1999); abrogated in PPARα-/- mice; cited from earlier work

| EC50 (GAL4-hPPARα) [µM] | SMILES | Serum triglyceride levels, 48 h [1] | Serum triglyceride levels, 8 h [1] | Serum triglyceride levels, 16 h [1] | Induction of PDK-4 mRNA in kidney [2] | Induction of PDK-4 mRNA levels in the liver [3] | EC50 [4] [µM] | further results |
| --- | --- | --- | --- | --- | --- | --- | --- | --- |
| – | CC(C)OC(=O)C(C)(C)Oc1ccc(C(=O)c2ccc(Cl)cc2)cc1 [Fenofibrate, fenofibrate] | 146.33 + 17.15 | 229.00 + 38.52 | 231.67 + 63.22 | 11 fold | 14 fold | – | – |
| 60 | Cc1ccc(C)c(OCCCC(C)(C)C(=O)O)c1 [Gemfibrozil] | 206.33 + 65.30 | 334.33 + 82.42 | 325.67 + 46.77 | no effect | least effect | 27 | Efficacy of PDK-4 induction compared with GW9578 ([4]; HK-2 cells, maximal induction by GW9578 = 100%): lower efficacy than GW9578; Change of triglyceride levels compared with the control group ([1]; single dose, 8, 16 and 48 hours): neither gemfibrozil nor fenofibrate altered triglyceride levels to a statistically significant degree; Saturation of ADRP induction [5]: did not appear to saturate; Activity in hamster PPARα transactivation assay (hamster PPARα): lowest activity |
| – | Cc1cc(SCc2sc(-c3ccc(C(F)(F)F)cc3)nc2C)ccc1OCC(=O)O [GW501516] | – | – | – | – | – | – | PDK4 mRNA induction in HEK293 cells [6]: induced |
| – | CN(CCOc1ccc(C[C@H](Nc2ccccc2C(=O)c2ccccc2)C(=O)O)cc1)c1ccccn1 [GW1929] | – | – | – | – | – | – | PDK-4 levels in the skeletal muscle of rats (PDK-4 [7]): decrease PDK-4 levels |
| 80 | CC(C)(Oc1ccc(C(=O)c2ccc(Cl)cc2)cc1)C(=O)O [Fenofibric Acid, fenofibric acid] | – | – | – | – | – | 10 | – |
| – | Cc1cccc(Nc2cc(Cl)nc(SCC(=O)O)n2)c1C [WY-14, 643] | – | – | – | – | – | – | PDK-4 induction in rodent tissues in vivo (PDK-4 [8]): PDK-4 induction was observed |

Source: US20040106135A1, “Assay for PPAR ligand dependent gene modulation” (priority 2002, published 2004)
